Reference: US20120070443A1, “PDE1 AS A TARGET THERAPEUTIC IN HEART DISEASE” (UNIVERSITY OF UTAH RESEARCH FOUNDATION, priority 2008, published 2012)
“Also recorded” adds a separate entry of the source. Read-outs that look alike come from different tables or passages of the source.

Tests used:
[1] = test system: cGMP-hydrolytic activity in preparations from human left ventricles (PDE1); assay: cGMP-hydrolytic activity in preparations from human left ventricles; format: biochemical; settings: human left ventricle, 0.1 μM cGMP
Method: Similar studies were carried out in preparation from human myocardium [Vandeput 2009]. […] From this it was inferred that PDE1 inhibition can have cardioprotective and other beneficial effects in human myocardium.

[2] = test system: PDE5; settings: 1 μM (1000 nM) sildenafil; mouse left ventricle; 0.1 μM cGMP
Method: (§1) Measurements were made in the presence and absence of calcium and calmodulin as described in Vandeput et al 2009. All measurements were made at a cGMP concentration of 0.1 μM. ‘Ca^2+-independent activity’ refers to activity measured in the absence of calcium and calmodulin; this includes PDE5 activity and unstimulated PDE1 activity. ‘Ca^2+-dependent activity’ refers to activity measured in the presence of calcium and calmodulin minus activity measured in their absence (i.e., minus Ca^2+-independent activity); this activity is comprised solely of Ca^2+/calmodulin-stimulated PDE1 activity.
(§2) The effects of sildenafil on cGMP-hydrolytic activity in preparations from normal (pre-diseased) and diseased mouse left ventricle were then examined [Vandeput 2009].

[3] = test system: isoproterenol-induced cardiac hypertrophy; settings: rats, cited from earlier work
[4] = test system: hypertrophy following aortic constriction; settings: mice; cited from earlier work
[5] = test system: ischemic injury; settings: rabbit model; cited from earlier work
[6] = test system: ischemic injury; settings: mouse model; cited from earlier work
[7] = test system: isolated mouse ventricular myocytes; settings: cited from earlier work
[8] = test system: left anterior descending coronary artery ligation; settings: mice, left anterior descending coronary arteries ligated; cited from earlier work
[9] = test system: doxorubicin toxicity; settings: mouse model of doxorubicin toxicity; cited from earlier work
[10] = test system: PDE1; assay: cAMP-hydrolytic activity in preparations from normal and infarcted mouse hearts; settings: 1 μM (1000 nM) sildenafil
[11] = test system: cGMP-hydrolytic activity in preparations from mouse left ventricles; assay: cGMP-hydrolytic activity in preparations from mouse left ventricle (total activity); settings: 0.1 μM cGMP
Method: as §1, §2

[12] = test system: PDE1; assay: cGMP-hydrolytic activity in mouse left ventricle preparations, Ca2+-dependent (Ca2+/calmodulin-stimulated) activity (PDE1)
Method: as §1, §2

## CCCc1nn(C)c2c(=O)[nH]c(-c3cc(S(=O)(=O)N4CCN(C)CC4)ccc3OCC)nc12 [sildenafil]
[1]; 10 nM sildenafil
  inhibition of cGMP-hydrolytic activity: no inhibition of cGMP-hydrolytic activity could be detected
[1]; 1 μM (1000 nM) sildenafil
  inhibition of cGMP-hydrolytic activity: significant inhibition; also recorded: profound
[2]
  inhibition of PDE5 (cGMP hydrolysis): inhibiting both PDE5 and PDE1
[3]; isoproterenol-induced cardiac hypertrophy
  survival: increase in survival
[3]
  development of isoproterenol-induced cardiac hypertrophy: block the development
[4]
  development of hypertrophy following aortic constriction: blocks and reverses
[5]
  infarct size following ischemic injury: reduces infarct size
[6]
  infarct size following ischemic injury: reduces infarct size
[7]
  apoptotic consequences of hypoxia: protects against
[8]
  apoptosis and survival: anti-apoptotic and survival benefits
[9]
  apoptosis: anti-apoptotic effects
  development of contractile dysfunction: protect against the development of contractile dysfunction
[10]; normal and infarcted mouse hearts, absence of calcium and calmodulin
  inhibition of cAMP-hydrolytic activity: inhibits cAMP-hydrolytic activity; also recorded: significantly inhibits
[10]; presence of calcium and calmodulin, compared with their absence
  relative inhibition of cAMP-hydrolytic activity: of greater magnitude
[11]; 10 nM sildenafil, normal (pre-diseased) and diseased mouse left ventricle
  inhibition of cGMP-hydrolytic activity: some inhibition
[11]; 1 μM sildenafil, compared with 10 nM, normal and diseased mouse left ventricle
  inhibition of cGMP-hydrolytic activity: Inhibition was greater
[12]; 10 nM sildenafil, 0.1 μM cGMP
  inhibition of PDE1 (cGMP hydrolysis): not PDE1
[12]; 1 μM (1000 nM) sildenafil, 0.1 μM cGMP
  inhibition of PDE1 (cGMP hydrolysis, Ca2+/calmodulin-stimulated activity): inhibiting both PDE5 and PDE1; also recorded: inhibits PDE1 activity
[12]; 1 μM sildenafil, cGMP hydrolysis
  magnitude of inhibition attributable to PDE1 relative to that attributable to PDE5: much greater magnitude
